According to patent publication US11415579B2, “Assay for measuring a rate of reaction between a target and a ligand candidate” (Imperial College Innovations Ltd., priority 2016, dated 2022):

Tests used:
[1] = Kinetic thiol consumption assay with model thiol glutathione; assay type: physicochemical; design: Rate constant with glutathione (k(GSH)): unit not given here; conditions: for Rate constant with glutathione (k(GSH)): 500 μM ligand, 5 μM thiol, phosphate buffer pH 8; for Rate constant with Glutathione: Protein: Glutathione, cysteine position NA, in h-1
Procedure, shortened: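 Rate constants for acrylamide reaction with 5 μM glutathione come from first-order exponential fits of normalized fluorescence decay (ex 380, em 470 nm). Reactions run in degassed phosphate buffer at pH 8 containing TCEP beads, room temperature.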

[2] = target: T1, human cyclin-dependent kinase 2 (Cdk2) (Homo sapiens, UniProt P24941); experiment: Kinetic thiol consumption assay with wild type Cdk2 (C177); assay type: binding; design: key to Rate enhancement, Cdk2 WT: k(Cdk2) divided by k(model thiol); Rate constant with Cdk2 (k(Cdk2)): unit not given here; conditions: for Rate constant with Cdk2 (k(Cdk2)): 500 μM ligand, 5 μM thiol, phosphate buffer pH 8; for Rate enhancement, Cdk2 WT: no additional mutations; for Rate constant with Cdk2 WT: Protein: Cdk2, cysteine position WT, in h^-1; for k(Cdk2)/k(Cdk2_mut) rate enhancement: model thiol Cdk2[C177A, F80C, K278C]; for k(Cdk2)/k(GSH) rate enhancement: model thiol glutathione
T1 construct: poly-histidine; made in house; host or cells: E. coli
Procedure, shortened: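 Rate enhancement: first-order decay constant with Cdk2 over that with a model thiol. Thiols (5 μM, degassed phosphate buffer pH 8, immobilized TCEP) were incubated with acrylamides at room temperature, and thiol consumption followed by fluorescence at 380/470 nm, normalized to DMSO control. Cdk2 was His-tagged, E. coli-expressed, with one surface cysteine (C177).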

[3] = target: T2, Cdk2[C177A, F80C, K278C] (Homo sapiens, UniProt P24941, C177A/F80C/K278C); experiment: Kinetic thiol consumption assay with mutant Cdk2 as model thiol; assay type: binding; design: unit not given here; conditions: 500 μM ligand, 5 μM thiol, phosphate buffer pH 8
T2 construct: poly-histidine; made in house; host or cells: E. coli
Procedure, shortened: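 Model thiol: His-tagged human Cdk2 C177A/F80C/K278C (two engineered surface cysteines), E. coli-expressed, 5 μM in degassed phosphate buffer pH 8 with immobilized TCEP beads (2% v/v). Fluorescence (ex/em 380/470 nm) followed over time at room temperature, normalized to DMSO/thiol control. First-order decay fit gives rate constants.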

[4] = target: T3, Cdk2(C177A, F80C) (Homo sapiens, UniProt P24941, C177A/F80C); experiment: Kinetic thiol consumption assay with Cdk2 mutant F80C, incl. kobs versus concentration (Kd, k2); assay type: binding; design: key to Rate enhancement, Cdk2 F80C: Cdk2 rate constant divided by model-thiol rate constant; conditions: additional mutation C177A; for Rate constant with Cdk2 F80C: Protein: Cdk2, cysteine position F80C, in h^-1
T3 construct: poly-histidine; made in house; host or cells: E. coli
Procedure, shortened: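 His-tagged Cdk2(C177A/F80C) from E. coli or model thiol, 5 μM in degassed phosphate buffer pH 8 with TCEP beads, reacted with acrylamide ligands; fluorescence (ex/em 380/470 nm) normalized to DMSO control and fitted to first-order decay for kobs. Kd and k2 obtained from hyperbolic fit of kobs versus ligand concentration.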

[5] = target: T4, Cdk2(H71C) (C177A) (Homo sapiens, UniProt P24941, C177A/H71C); experiment: Kinetic thiol consumption assay with Cdk2 mutant H71C; assay type: binding; design: key to Rate enhancement, Cdk2 H71C: rate constant with Cdk2 ÷ rate constant with model thiol (fold); conditions: additional mutation C177A; for Rate constant with Cdk2 H71C: Protein: Cdk2, cysteine position H71C, in h^-1
T4 construct: poly-histidine; made in house; host or cells: E. coli
Procedure, shortened: (§1)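 His-tagged single-surface-cysteine Cdk2 mutants (C177A background) from E. coli, 5 μM in degassed phosphate buffer pH 8, pre-treated with immobilized TCEP beads. Fluorescence (ex/em 380/470 nm) read after 1 h at room temperature, normalized to DMSO/thiol-only control; first-order decay fits gave rate constants, divided by model-thiol rate for rate enhancement.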

[6] = target: T5, Cdk2(S276C) (C177A) (Homo sapiens, UniProt P24941, C177A/S276C); experiment: Kinetic thiol consumption assay with Cdk2 mutant S276C; assay type: binding; design: key to Rate enhancement, Cdk2 S276C: rate constant with Cdk2 ÷ rate constant with model thiol (fold); conditions: additional mutation C177A; for Rate constant with Cdk2 S276C: Protein: Cdk2, cysteine position S276C, in h^-1
T5 construct: poly-histidine; made in house; host or cells: E. coli
Procedure, shortened: as §1

[7] = target: T6, Cdk2(N272C) (C177A) (Homo sapiens, UniProt P24941, C177A/N272C); experiment: Kinetic thiol consumption assay with Cdk2 mutant N272C; assay type: binding; design: key to Rate enhancement, Cdk2 N272: rate constant with Cdk2 ÷ rate constant with model thiol (fold); conditions: for Rate enhancement, Cdk2 N272: Cdk2 N272, additional mutation C177A; for Rate constant with Cdk2 N272C: Protein: Cdk2, cysteine position N272C, additional mutation C177A, in h^-1
T6 construct: poly-histidine; made in house; host or cells: E. coli
Procedure, shortened: as §1

[8] = target: T7, Cdk2(T182C) (C177A) (Homo sapiens, UniProt P24941, C177A/T182C); experiment: Kinetic thiol consumption assay with Cdk2 mutant T182C; assay type: binding; design: key to Rate enhancement, Cdk2 T182C: rate constant with Cdk2 ÷ rate constant with model thiol (fold); conditions: additional mutation C177A; for Rate constant with Cdk2 T182C: Protein: Cdk2, cysteine position T182C, in h^-1
T7 construct: poly-histidine; made in house; host or cells: E. coli
Procedure, shortened: as §1

[9] = target: T8, Cdk2(R122C) (C177A) (Homo sapiens, UniProt P24941, C177A/R122C); experiment: Kinetic thiol consumption assay with Cdk2 mutant R122C; assay type: binding; design: key to Rate enhancement, Cdk2 R122C: rate constant with Cdk2 ÷ rate constant with model thiol (fold); conditions: additional mutation C177A; for Rate constant with Cdk2 R122C: Protein: Cdk2, cysteine position R122C, in h-1
T8 construct: poly-histidine; made in house; host or cells: E. coli
Procedure, shortened: as §1

[10] = target: T9, Cdk2(S181C) (C177A) (Homo sapiens, UniProt P24941, C177A/S181C); experiment: Kinetic thiol consumption assay with Cdk2 mutant S181C; assay type: binding; design: key to Rate enhancement, Cdk2 S181C: rate constant with Cdk2 ÷ rate constant with model thiol (fold); conditions: additional mutation C177A; for Rate constant with Cdk2 S181C: Protein: Cdk2, cysteine position S181C, in h^-1
T9 construct: poly-histidine; made in house; host or cells: E. coli
Procedure, shortened: as §1

Structure (SMILES) | Rate constant with glutathione (k(GSH)) [1] | Rate constant with Glutathione [1] | Rate constant with Cdk2 (k(Cdk2)) [2] | Rate enhancement, Cdk2 WT [2] | Rate constant with Cdk2 WT [2] | k(Cdk2)/k(Cdk2_mut) rate enhancement [2] | k(Cdk2)/k(GSH) rate enhancement [2] | Rate constant with Cdk2[C177A, F80C, K278C] (k(Cdk2_mut)) [3] | Rate enhancement, Cdk2 F80C [4] | Rate enhancement, Cdk2 H71C [5] | Rate enhancement, Cdk2 S276C [6] | Rate constant with Cdk2 S276C [6] | Rate enhancement, Cdk2 N272 [7] | Rate constant with Cdk2 N272C [7] | Rate enhancement, Cdk2 T182C [8] | Rate constant with Cdk2 T182C [8] | Rate enhancement, Cdk2 R122C [9] | Rate constant with Cdk2 R122C [9] | Rate enhancement, Cdk2 S181C [10] | Rate constant with Cdk2 S181C [10] | other results
C=CC(=O)N1CCCCCC1c1ccc(N(C)C)cc1 (centres unmarked) [EL-1140] | 0.00797 | 0.008126 | 0.00303 | 0.6141 | 0.00499 | 0.7455 | 0.3806 | 0.00407 | 0.7204 | 0 | 0.2024 | 0.001645 | 0.1121 | 0.0009109 | 1.338 | 0.01087 | 0.3699 | 0.003006 | 0.6713 | 0.005455 | Rate constant with Cdk2 F80C [4]: 0.005854
C=CC(=O)NCC1(NC(=O)OC(C)(C)C)CCCCC1 [EL-1143] | 0.00493 | 0.008837 | 0.014 | 4.291 | 0.03792 | 1.746 | 2.839 | 0.00802 | 1.059 | 0.2745 | 3.446 | 0.03045 | 1.495 | 0.01321 | 17.17 | 0.1517 | 0.3144 | 0.002778 | 2.376 | 0.021 | Rate constant with Cdk2 F80C [4]: 0.009355; Rate constant with Cdk2 H71C [5]: 0.002426
C=CC(=O)N1CCC(c2nc3ccccc3[nH]2)CC1 [EL-1152] | 0.00606 | 0.005936 | 0.00612 | 1.186 | 0.007039 | 1.055 | 1.009 | 0.0058 | 0.816 | 0.6643 | 2.027 | 0.01203 | 0.326 | 0.001935 | 3.834 | 0.02276 | 0.7476 | 0.004438 | 0.9565 | 0.005678 | Rate constant with Cdk2 F80C [4]: 0.004844; Rate constant with Cdk2 H71C [5]: 0.003943
C=CC(=O)NC(C)c1cccc(N2CCOCC2)c1 (centres unmarked) [EL-1153] | 0.00284 | 0.002823 | 0.00103 | 0.3642 | 0.001028 | 0.2449 | 0.3619 | 0.00419 | 0 | 0 | 2.7205E−11 | 7.68E−14 | 4.534 | 0.0128 | 0.474 | 0.001338 | 0.9706 | 0.00274 | 0.7428 | 0.002097 | 
C=CC(=O)N1CCN(c2ccccc2C(N)=O)CC1 [EL-1155] | 0.00836 | 0.01124 | 0.00466 | 0.4144 | 0.004658 | 1.221 | 0.5575 | 0.00382 | 0.3142 | 0.4653 | 1.346 | 0.01513 | 1.099 | 0.01235 | 2.129 | 0.02393 | 0.5734 | 0.006445 | 0.5376 | 0.006043 | Rate constant with Cdk2 F80C [4]: 0.003532; Rate constant with Cdk2 H71C [5]: 0.00523
